Test results: patent US11808760B1, “System and methods for in vitro structural toxicity testing” (CURI BIO, INC., priority 2019, dated 2023)

Key:
liver cells [1] = tested on: liver cells
liver cells [2] = assay: AI (CNN) structural toxicity assay, aspirin on liver cells (FIG. 6); format: cell-based
Excerpt: In an exemplary embodiment of the subject technology, a series of 2-class neural network training steps may be used, where a separate model is created for each drug dose compared to its control. As will be appreciated, a high level of sensitivity in detecting structural changes will be generated. As a result, aspects of the subject technology successfully capture obvious phenotypes, such as cell damage and death, as well as subtle phenotypes, such as changes to sarcomere organization or distribution of mitochondria.
As detailed in the following sections, the input imaging data is processed and may be augmented before training deep neural networks. For each test condition, images from a well are dedicated for validation and the rest are used for training. The performance of each training may be used on the validation wells as the measure of structural change. […] One the other hand, if the achieved accuracy is high, it means that the trained neural network was able to differentiate between the drug-treated images at dose i versus the vehicle images, and the strength of the change is calculated from the distribution of class probabilities.
A 2-class deep neural network may be trained (530) for image classification. The higher layers of the neural network may be allowed to learn the image features. […]

iPSC-derived hepatocytes = assay: AI (CNN) structural toxicity assay, validation z-factor versus dose (FIG. 7); format: cell-based; conditions: reference vehicle (DMSO), doses 0.01-30 uM, 18-layer residual network
Experimental: When using multi-channel images, the channels may include brightfield images, and fluorescence images captured at different wavelengths in order to visualize different cellular structures. As one example of an experimental setup, the cells are iPSC-derived hepatocytes, the drug under investigation is tamoxifen (a drug with known liver toxicity), dose X is 0.01 uM, dose Y is 0.10 uM, dose Z is 1.00 uM, the cells are fixed and stained with phalloidin-conjugated fluorescent dyes, and the imaging is performed with an inverted fluorescence microscopy system, capturing multiple images at each individual well.
A 2-class deep neural network may be trained (530) for image classification. The higher layers of the neural network may be allowed to learn the image features. The training may be performed with an initial learning rate of 0.01 for 20 epochs and may be repeated three times. For each training session, the final neural network may be selected from the epoch with the highest validation accuracy.
To generate the input data to train the neural network, each image may be processed and augmented. […]

Structure (SMILES)	structural damage of liver cells over time (liver cells [1])	structural changes in the cells (liver cells [2])	dose at which validation z-factors show values above -1 (start of structural changes between drug-treated cells and reference cells) (iPSC-derived hepatocytes) [µM]
CC(=O)N[C@@H](CS)C(=O)O [acetylcysteine]	little damage to the cells	–	–
CC(=O)Oc1ccccc1C(=O)O [aspirin]	–	no, or minimal, structural changes	–
COc1cccc2c1C(=O)c1c(O)c3c(c(O)c1C2=O)C[C@@](O)(C(=O)CO)C[C@@H]3O[C@H]1C[C@H](N)[C@H](O)[C@H](C)O1 [doxorubicin]	changes in the structural integrity of the cells	–	–
CC/C(=C(\c1ccccc1)c1ccc(OCCN(C)C)cc1)c1ccccc1 [tamoxifen]	noticeable structural damage	–	5
